Experimental data as given in patent US8937088B2, “Ureas for the treatment and prevention of cancer” (Astar Biotech LLC, priority 2011, dated 2015).
Where two headings read alike, the source gives them in different places.

Key:
[1] = test system: HUH7 (human hepatoma cell line); test: Cell death detection, trypan blue exclusion assay, HUH7, in combination with AZD-6244; format: cell-based; conditions: HUH7, 6-day treatment; for Cell Death (%) in combination with AZD-6244: compound 0.5 μM
Protocol: (§1) Biological Test 2. Cell Death Detection Using Trypan Blue Exclusion Assay.
(§2) After drug treatment, cells were harvested by trypsinization with trypsin/EDTA for 10 min at 37° C. As some apoptotic cells detached from the culture substratum into the medium, these cells were also collected by centrifugation of the medium at 1,200 rpm for 5 min. The pooled cell pellets were resuspended and mixed with trypan blue dye. After Trypan blue stain was done, cells were counted by using a light microscope and a hemocytometer. Blue dye-incorporating cells were scored as being dead. Five hundred cells from randomly chosen fields were counted, and the number of dead cells was counted and expressed as a percentage of the total number of cells counted as shown in Tables 2 to 8 below.

[2] = test system: HepG2 (human Hepatocellular carcinoma cell line); test: Cell death detection, trypan blue exclusion assay, HepG2; format: cell-based; conditions: HepG2, 5-day treatment
Protocol: as §1, §2

[3] = target: KDR(VEGFR2) (Homo sapiens, UniProt P35968); test: In vitro kinase assay (Invitrogen SelectScreen Profiling Service), KDR; format: biochemical
Sequence of KDR(VEGFR2) (P35968 20-1356): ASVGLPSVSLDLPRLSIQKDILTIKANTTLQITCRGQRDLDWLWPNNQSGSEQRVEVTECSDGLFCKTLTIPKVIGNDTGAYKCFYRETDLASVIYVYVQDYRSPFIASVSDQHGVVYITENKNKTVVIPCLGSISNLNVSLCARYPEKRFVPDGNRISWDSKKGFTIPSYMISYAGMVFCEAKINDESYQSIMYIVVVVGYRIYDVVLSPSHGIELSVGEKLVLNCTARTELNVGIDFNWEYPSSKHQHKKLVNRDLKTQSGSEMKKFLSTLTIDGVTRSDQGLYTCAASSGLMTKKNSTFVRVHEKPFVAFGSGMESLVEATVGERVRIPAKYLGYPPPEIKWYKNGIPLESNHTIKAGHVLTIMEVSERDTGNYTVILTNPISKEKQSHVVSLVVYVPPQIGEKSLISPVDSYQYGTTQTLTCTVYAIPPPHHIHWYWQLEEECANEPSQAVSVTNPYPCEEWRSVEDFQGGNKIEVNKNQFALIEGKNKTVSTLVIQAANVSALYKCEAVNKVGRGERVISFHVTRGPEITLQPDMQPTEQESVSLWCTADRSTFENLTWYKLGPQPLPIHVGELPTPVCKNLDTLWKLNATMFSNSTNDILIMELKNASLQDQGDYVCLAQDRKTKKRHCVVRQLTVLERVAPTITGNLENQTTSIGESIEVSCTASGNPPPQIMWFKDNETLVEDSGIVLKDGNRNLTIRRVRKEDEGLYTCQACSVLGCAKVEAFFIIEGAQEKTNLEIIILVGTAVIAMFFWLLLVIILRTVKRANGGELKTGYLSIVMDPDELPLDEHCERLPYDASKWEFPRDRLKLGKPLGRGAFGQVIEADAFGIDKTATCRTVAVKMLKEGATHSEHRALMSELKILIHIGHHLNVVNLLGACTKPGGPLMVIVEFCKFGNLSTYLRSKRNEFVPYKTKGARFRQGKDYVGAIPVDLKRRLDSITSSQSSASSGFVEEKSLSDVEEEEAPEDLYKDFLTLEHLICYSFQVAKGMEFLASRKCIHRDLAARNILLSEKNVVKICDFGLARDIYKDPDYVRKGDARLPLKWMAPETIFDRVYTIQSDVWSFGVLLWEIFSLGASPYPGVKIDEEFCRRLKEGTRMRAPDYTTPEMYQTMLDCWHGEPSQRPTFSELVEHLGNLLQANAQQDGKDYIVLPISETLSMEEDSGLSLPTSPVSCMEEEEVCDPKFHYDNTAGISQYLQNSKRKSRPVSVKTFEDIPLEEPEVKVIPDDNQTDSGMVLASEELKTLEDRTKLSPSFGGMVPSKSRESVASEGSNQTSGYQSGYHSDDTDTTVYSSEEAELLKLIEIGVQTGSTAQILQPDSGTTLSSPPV
Protocol: (§3) Biological Test 1. In Vitro Kinase Assay for BRAF, FLT3 and KDR(VEGFR2) The inhibitory activities of the compounds of the invention were measured by Invitrogen's SelectScreen® Profiling Service.

[4] = test system: Hep3B (human hepatoma cell line); test: Cell death detection, trypan blue exclusion assay, Hep3B; format: cell-based; conditions: 5-day treatment
Protocol: as §1, §2

[5] = test system: HT29 (human colon adenocarcinoma cell line); test: Cell death detection, trypan blue exclusion assay, HT29; format: cell-based; conditions: HT29, 5-day treatment
Protocol: as §1, §2

[6] = test system: HUH7 (human hepatoma cell line); test: Cell death detection, trypan blue exclusion assay, HUH7; format: cell-based; conditions: Huh-7, 168 h, HUH7, 7-day treatment, read-out: Cell Death (%) at Tested Concentration
Protocol: as §1, §2

[7] = target: T1, FLT3 (Homo sapiens, UniProt P36888); test: In vitro kinase assay (Invitrogen SelectScreen Profiling Service), FLT3; format: biochemical; conditions: FLT3, 0.1 μM
T1 sequence (P36888 27-993): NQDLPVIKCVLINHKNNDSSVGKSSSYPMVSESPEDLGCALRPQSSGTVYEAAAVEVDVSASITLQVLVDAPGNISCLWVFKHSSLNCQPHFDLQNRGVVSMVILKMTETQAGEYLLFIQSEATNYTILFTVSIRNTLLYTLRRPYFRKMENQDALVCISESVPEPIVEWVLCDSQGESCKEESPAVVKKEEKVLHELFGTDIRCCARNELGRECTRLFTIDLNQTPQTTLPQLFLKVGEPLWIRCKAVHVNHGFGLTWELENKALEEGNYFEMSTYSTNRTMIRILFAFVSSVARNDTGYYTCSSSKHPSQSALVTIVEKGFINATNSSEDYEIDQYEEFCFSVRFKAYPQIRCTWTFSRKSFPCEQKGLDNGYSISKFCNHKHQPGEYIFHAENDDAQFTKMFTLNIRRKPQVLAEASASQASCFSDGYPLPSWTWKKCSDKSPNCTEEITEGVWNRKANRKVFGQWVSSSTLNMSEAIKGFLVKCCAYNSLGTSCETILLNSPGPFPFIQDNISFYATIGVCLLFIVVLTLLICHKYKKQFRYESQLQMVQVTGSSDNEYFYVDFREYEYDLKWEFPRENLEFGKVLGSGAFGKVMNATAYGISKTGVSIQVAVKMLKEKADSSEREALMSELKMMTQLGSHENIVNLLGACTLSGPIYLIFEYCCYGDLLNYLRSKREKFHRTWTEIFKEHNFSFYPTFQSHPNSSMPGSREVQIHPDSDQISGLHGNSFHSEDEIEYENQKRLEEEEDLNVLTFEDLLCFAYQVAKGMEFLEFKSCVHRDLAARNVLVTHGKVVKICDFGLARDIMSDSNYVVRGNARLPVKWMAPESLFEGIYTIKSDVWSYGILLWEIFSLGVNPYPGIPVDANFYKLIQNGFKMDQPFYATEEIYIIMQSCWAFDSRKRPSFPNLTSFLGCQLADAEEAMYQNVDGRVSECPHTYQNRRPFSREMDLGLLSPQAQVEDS
Protocol: as §3

[8] = target: BRAF (Homo sapiens, UniProt P15056); test: In vitro kinase assay (Invitrogen SelectScreen Profiling Service), BRAF; format: biochemical
Sequence of BRAF (P15056 whole entry): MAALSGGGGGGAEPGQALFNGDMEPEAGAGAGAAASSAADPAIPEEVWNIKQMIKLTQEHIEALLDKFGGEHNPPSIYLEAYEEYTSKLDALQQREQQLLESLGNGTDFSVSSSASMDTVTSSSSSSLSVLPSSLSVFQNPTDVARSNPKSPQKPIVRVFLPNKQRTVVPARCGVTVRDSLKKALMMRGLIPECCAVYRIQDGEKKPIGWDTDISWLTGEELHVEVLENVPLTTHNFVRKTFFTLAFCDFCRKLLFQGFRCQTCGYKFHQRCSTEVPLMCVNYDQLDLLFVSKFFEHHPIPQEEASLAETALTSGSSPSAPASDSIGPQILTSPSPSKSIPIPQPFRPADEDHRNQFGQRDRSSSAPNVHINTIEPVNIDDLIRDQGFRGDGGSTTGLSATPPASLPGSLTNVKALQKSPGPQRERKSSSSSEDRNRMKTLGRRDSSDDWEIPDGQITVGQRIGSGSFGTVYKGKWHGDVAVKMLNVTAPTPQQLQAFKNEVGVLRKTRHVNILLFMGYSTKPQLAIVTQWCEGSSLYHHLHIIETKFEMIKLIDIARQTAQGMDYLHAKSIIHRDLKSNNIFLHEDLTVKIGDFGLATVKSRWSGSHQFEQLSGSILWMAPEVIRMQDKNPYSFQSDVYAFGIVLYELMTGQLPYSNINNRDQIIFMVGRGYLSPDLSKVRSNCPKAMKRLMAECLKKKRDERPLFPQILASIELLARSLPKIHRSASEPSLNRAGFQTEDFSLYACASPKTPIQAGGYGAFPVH
Protocol: as §3

[9] = test system: LNCaP (human prostate adenocarcinoma cell line); test: Cell death detection, trypan blue exclusion assay, LNCaP; format: cell-based; conditions: read-out: Cell Death (%) at Tested Concentration
Protocol: as §1, §2

| Structure (SMILES) | Cell Death (%) at Tested Concentration ([2]; 0.25 uM) [%] | Cell Death (%) at Tested Concentration ([2]; 3.0 uM) [%] | Cell Death (%) at Tested Concentration ([2]; 5.0 uM) [%] | Cell Death (%) in combination with AZD-6244 ([1]; AZD-6244 0 μM) [%] | Cell Death (%) in combination with AZD-6244 ([1]; AZD-6244 0.5 μM) [%] | cytotoxicity at 1 µM [6] [%] | cytotoxicity at 2.5 µM [6] [%] | cytotoxicity at 5 µM [6] [%] | cytotoxicity at 7.5 µM [6] [%] | cytotoxicity at 10 µM [6] [%] | cytotoxicity at 1 µM ([9]; 72 h, 3-day treatment) [%] | cytotoxicity at 2.5 µM ([9]; 72 h, 3-day treatment) [%] | cytotoxicity at 5 µM ([9]; 72 h, 3-day treatment) [%] | cytotoxicity at 7.5 µM ([9]; 72 h, 3-day treatment) [%] | cytotoxicity at 10 µM ([9]; 72 h, 3-day treatment) [%] | cytotoxicity at 1 µM ([9]; 168 h, 7-day treatment) [%] | cytotoxicity at 2.5 µM ([9]; 168 h, 7-day treatment) [%] | cytotoxicity at 5 µM ([9]; 168 h, 7-day treatment) [%] | cytotoxicity at 7.5 µM ([9]; 168 h, 7-day treatment) [%] | cytotoxicity at 10 µM ([9]; 168 h, 7-day treatment) [%] | other results |
| --- | --- | --- | --- | --- | --- | --- | --- | --- | --- | --- | --- | --- | --- | --- | --- | --- | --- | --- | --- | --- | --- |
| Cn1cnc2c(F)c(Nc3ccc(Br)cc3Cl)c(C(=O)NOCCO)cc21 [AZD-6244, reference compound] |  |  |  |  |  |  |  |  |  |  |  |  |  |  |  |  |  |  |  |  | Cell Death (%), AZD-6244 alone ([1]; AZD-6244 0.5 μM, no other compound (0)): 2.3% |
| CNC(=O)c1cc(Oc2ccc(NC(=O)Nc3cccc(S(F)(F)(F)(F)F)c3)cc2)ccn1 [Example 1, N-methyl-4-[4-({[3-(pentafluoro-λ^6-sulfanyl)phenyl]carbamoyl}amino)phenoxy]pyridine-2-carboxamide] | 2.6 | 32.4 | 84.5 | 2.3 | 99 | 2 | 5.1 | 18.3 | 52.7 | 72.3 | 1.6 | 1.5 | 1.3 | 7.3 | 62.5 | 1.6 | 2.8 | 2.8 | 99 | 99 | inhibition at 0.1 µM [3]: 79%; Cell Death (%) at Tested Concentration ([4]; 0.25 uM): 3.8%; Cell Death (%) at Tested Concentration ([4]; 3.0 uM): 22.3%; Cell Death (%) at Tested Concentration ([4]; 5.0 uM): 92.7%; Cell Death (%) at Tested Concentration ([5]; 2.5 uM): 12.4%; Cell Death (%) at Tested Concentration ([5]; 5.0 uM): 14.5%; Cell Death (%) at Tested Concentration ([5]; 10 uM): 68.7%; inhibition at 0.1 µM [7]: 85%; inhibition at 0.1 µM [8]: 18% |
| CNC(=O)c1cc(Oc2ccc(NC(=O)Nc3cccc(S(F)(F)(F)(F)F)c3)c(F)c2)ccn1 [Example 2, 4-[3-fluoro-4-({[3-(pentafluoro-λ^6-sulfanyl)phenyl]carbamoyl}amino)phenoxy]-N-methylpyridine-2-carboxamide] | 2.2 | 94.7 | 99 | 3.6 | 99 | 2.4 | 7.3 | 42.6 | 72.6 | 75.2 | 1.7 | 1.8 | 1.6 | 4.2 | 83.7 | 1.5 | 2.7 | 2.5 | 17.3 | 99 | inhibition at 0.1 µM [3]: 76%; Cell Death (%) at Tested Concentration ([4]; 0.25 uM): 4.1%; Cell Death (%) at Tested Concentration ([4]; 3.0 uM): 92.7%; Cell Death (%) at Tested Concentration ([4]; 5.0 uM): 98.5%; Cell Death (%) at Tested Concentration ([5]; 2.5 uM): 12.3%; Cell Death (%) at Tested Concentration ([5]; 5.0 uM): 14.7%; Cell Death (%) at Tested Concentration ([5]; 10 uM): 24.8%; inhibition at 0.1 µM [7]: 71%; inhibition at 0.1 µM [8]: 14% |
| CNC(=O)c1cc(Oc2ccc(NC(=O)Nc3ccc(Cl)c(S(F)(F)(F)(F)F)c3)cc2)ccn1 [Example 3, 4-[4-({[4-chloro-3-(pentafluoro-λ^6-sulfanyl)phenyl]carbamoyl}amino)phenoxy]-N-methylpyridine-2-carboxamide] | 2.7 | 4.2 | 14.6 | 1.9 | 94.6 | 2.7 | 4.5 | 53.8 | 79.6 | 87.6 | 1.3 | 1.9 | 4.3 | 13.4 | 91.8 | 2.3 | 2.8 | 99 | 99 | 99 | inhibition at 0.1 µM [3]: 64%; Cell Death (%) at Tested Concentration ([4]; 0.25 uM): 3.3%; Cell Death (%) at Tested Concentration ([4]; 3.0 uM): 25.6%; Cell Death (%) at Tested Concentration ([4]; 5.0 uM): 90.7%; Cell Death (%) at Tested Concentration ([5]; 2.5 uM): 11.4%; Cell Death (%) at Tested Concentration ([5]; 5.0 uM): 16.7%; Cell Death (%) at Tested Concentration ([5]; 10 uM): 30.7%; inhibition at 0.1 µM [7]: 72%; inhibition at 0.1 µM [8]: 11% |
| CNC(=O)c1cc(Oc2ccc(NC(=O)Nc3cc(S(F)(F)(F)(F)F)ccc3Cl)cc2)ccn1 [Example 5, 4-[4-({[2-chloro-5-(pentafluoro-λ^6-sulfanyl)phenyl]carbamoyl}amino)phenoxy]-N-methylpyridine-2-carboxamide] |  |  |  |  |  | 1.7 | 3.1 | 4.3 | 17.2 | 19.8 | 1 | 1.5 | 1.4 | 2.1 | 7.6 | 1.8 | 1.9 | 2.3 | 4.6 | 14.7 |  |
| CNC(=O)c1cc(Oc2ccc(NC(=O)Nc3cc(S(F)(F)(F)(F)F)ccc3Cl)c(F)c2)ccn1 [Example 6, 4-[4-({[2-chloro-5-(pentafluoro-λ^6-sulfanyl)phenyl]carbamoyl}amino)-3-fluorophenoxy]-N-methylpyridine-2-carboxamide] | 2.6 | 90.7 | 99 | 2.1 | 99 | 2 | 2.2 | 7.4 | 32.1 | 35.4 | 1.1 | 1.3 | 1.2 | 3.6 | 4.3 | 1.7 | 1.9 | 2.4 | 4.8 | 13.4 | Cell Death (%) at Tested Concentration ([4]; 0.25 uM): 3.9%; Cell Death (%) at Tested Concentration ([4]; 3.0 uM): 38.4%; Cell Death (%) at Tested Concentration ([4]; 5.0 uM): 89.6%; Cell Death (%) at Tested Concentration ([5]; 2.5 uM): 11.7%; Cell Death (%) at Tested Concentration ([5]; 5.0 uM): 13.4%; Cell Death (%) at Tested Concentration ([5]; 10 uM): 22.1% |
